Laboratory results reported in ChEMBL document CHEMBL1201862, “PubChem BioAssay data set” (2004).
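In this assay, cells in 96-well plates receive the compound at five concentrations for 48 hours. Endpoints are linearly interpolated between the surrounding concentrations. GI50 = concentration required for 50% inhibition of growth.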 The source made the active and inactive calls. Rule as the data show it: active = GI50 up to about 1.1 µM and inactive = higher.

What was measured:
Experiment in all cases: NCI tumour cell line growth inhibition, 48 h
[1] = tested on: K562
[2] = tested on: COLO 205
[3] = tested on: NCI-H23
[4] = tested on: HCC 2998
[5] = tested on: KM12
[6] = tested on: MCF7
[7] = tested on: Malme-3M
[8] = tested on: SK-MEL-2
[9] = tested on: BT-549
[10] = tested on: T47D
[11] = tested on: 786-0
[12] = tested on: MOLT-4
[13] = tested on: A549
[14] = tested on: NCI/ADR-RES
[15] = tested on: SK-MEL-5
[16] = tested on: IGROV-1
[17] = tested on: CCRF-CEM
[18] = tested on: ACHN
[19] = tested on: SNB-75

Compound	GI50 [1]	GI50 [2]	GI50 [3]	GI50 [4]	GI50 [5]	GI50 [6]	GI50 [7]	GI50 [8]	GI50 [9]	GI50 [10]	GI50 [11]	GI50 [12]	GI50 [13]	GI50 [14]	GI50 [15]	GI50 [16]	GI50 [17]	GI50 [18]	GI50 [19]
CC(C)(C)OC(=O)NCCCCC1NC(=O)[C@@H]2Cc3c([nH]c4ccccc34)C(c3ccccc3)N2C1=O (stereo not given in full)	33.4 µM (inactive)	21.1 µM (inactive)	25.9 µM (inactive)	12.8 µM (inactive)	18.9 µM (inactive)	35.2 µM (inactive)	31.1 µM (inactive)	24.7 µM (inactive)	21.9 µM (inactive)	18 µM (inactive)	25.1 µM (inactive)	15.6 µM (inactive)	38.4 µM (inactive)	35.1 µM (inactive)	27.6 µM (inactive)	40.3 µM (inactive)	26.7 µM (inactive)	43.8 µM (inactive)	
COc1ccc2nccc(SCC(=O)O)c2c1	> 100 µM (inactive)		> 100 µM (inactive)		> 100 µM (inactive)			> 100 µM (inactive)	> 100 µM (inactive)	> 100 µM (inactive)	> 100 µM (inactive)	> 100 µM (inactive)	> 100 µM (inactive)	> 100 µM (inactive)	> 100 µM (inactive)	> 100 µM (inactive)	> 100 µM (inactive)	> 100 µM (inactive)	
CN(C)C1(N(C)C)Oc2c(c(=O)n(C)c(=O)n2C)C(c2ccc(C(F)(F)F)cc2)C1(F)F (stereo not given)	> 100 µM (inactive)	> 100 µM (inactive)	> 100 µM (inactive)	> 100 µM (inactive)	> 100 µM (inactive)	> 100 µM (inactive)		> 100 µM (inactive)	> 100 µM (inactive)	> 100 µM (inactive)	> 100 µM (inactive)		> 100 µM (inactive)	> 100 µM (inactive)	> 100 µM (inactive)		> 100 µM (inactive)	> 100 µM (inactive)	> 100 µM (inactive)
O=C(O)Cc1ccc(Oc2nc3ccccc3nc2C(=O)O)cc1	0.0849 µM (active)	> 100 µM (inactive)	> 100 µM (inactive)	> 100 µM (inactive)	> 100 µM (inactive)	> 100 µM (inactive)		> 100 µM (inactive)	> 100 µM (inactive)	> 100 µM (inactive)	> 100 µM (inactive)		> 100 µM (inactive)	> 100 µM (inactive)	> 100 µM (inactive)	> 100 µM (inactive)	> 100 µM (inactive)	> 100 µM (inactive)	> 100 µM (inactive)
Cc1ccc2c(c1)NC(c1ccc(C(=O)O)cc1)c1cccn1-2 (stereo not given)	> 100 µM (inactive)	> 100 µM (inactive)	> 100 µM (inactive)		30.7 µM (inactive)	25.1 µM (inactive)		43.9 µM (inactive)	61.2 µM (inactive)	13.7 µM (inactive)	19.3 µM (inactive)	64.1 µM (inactive)	36.3 µM (inactive)		> 100 µM (inactive)		> 100 µM (inactive)	19.3 µM (inactive)	18.7 µM (inactive)
CSc1nc(-c2ccccc2)[nH]c(=O)n1		> 100 µM (inactive)	> 100 µM (inactive)	> 100 µM (inactive)	> 100 µM (inactive)	> 100 µM (inactive)	59 µM (inactive)	> 100 µM (inactive)	> 100 µM (inactive)	> 100 µM (inactive)	> 100 µM (inactive)	> 100 µM (inactive)	> 100 µM (inactive)	> 100 µM (inactive)	> 100 µM (inactive)	> 100 µM (inactive)	> 100 µM (inactive)	> 100 µM (inactive)	
CCn1c(-c2ccc(/N=N/Nc3ccc(-c4n[nH]c(=S)n4CC)cc3)cc2)n[nH]c1=S	2.67 µM (inactive)	2.69 µM (inactive)	2.53 µM (inactive)		2.44 µM (inactive)	3.33 µM (inactive)	2.57 µM (inactive)	1.68 µM (inactive)	1.66 µM (inactive)	0.861 µM (active)	4.24 µM (inactive)	2.17 µM (inactive)	3.56 µM (inactive)	28.8 µM (inactive)	1.49 µM (inactive)	3.09 µM (inactive)	3.91 µM (inactive)	2.36 µM (inactive)	2.79 µM (inactive)
CC1(C)CC(=O)C(CC(C(=O)C(=O)Nc2cc(C(F)(F)F)ccc2Cl)C(=O)c2ccco2)C(=O)C1 (stereo not given)	> 100 µM (inactive)	> 100 µM (inactive)	> 100 µM (inactive)	> 100 µM (inactive)	> 100 µM (inactive)	> 100 µM (inactive)	> 100 µM (inactive)	> 100 µM (inactive)	> 100 µM (inactive)	> 100 µM (inactive)	> 100 µM (inactive)	> 100 µM (inactive)	> 100 µM (inactive)	> 100 µM (inactive)	> 100 µM (inactive)	> 100 µM (inactive)	> 100 µM (inactive)	> 100 µM (inactive)	
O=c1oc2ncccc2n1Cc1ccc([N+](=O)[O-])cc1	> 100 µM (inactive)	> 100 µM (inactive)	> 100 µM (inactive)		> 100 µM (inactive)	> 100 µM (inactive)	> 100 µM (inactive)	> 100 µM (inactive)	38.1 µM (inactive)	> 100 µM (inactive)	> 100 µM (inactive)	> 100 µM (inactive)	> 100 µM (inactive)	> 100 µM (inactive)	> 100 µM (inactive)	> 100 µM (inactive)	> 100 µM (inactive)	> 100 µM (inactive)	80.7 µM (inactive)
CC1(CCCCO)C=CC(S(=O)(=O)c2ccccc2)CC1 (stereo not given)	3.24 µM (inactive)	4.37 µM (inactive)	5.04 µM (inactive)	5.9 µM (inactive)	1.86 µM (inactive)	3.15 µM (inactive)	0.581 µM (active)	11.1 µM (inactive)	14.4 µM (inactive)		3.96 µM (inactive)	3.15 µM (inactive)	3.64 µM (inactive)	2.59 µM (inactive)	4.27 µM (inactive)	2.38 µM (inactive)	2.67 µM (inactive)	5.57 µM (inactive)	1.46 µM (inactive)
CC(C)(C)OC(=O)N[C@@H](Cc1ccccc1)C(=O)N1CC[C@@H](C(=O)N2[C@H]3CC4CC[C@@]3(CS2(=O)=O)C4(C)C)N1	> 100 µM (inactive)	46.9 µM (inactive)	50.6 µM (inactive)	79.3 µM (inactive)	79.1 µM (inactive)			61.7 µM (inactive)	63.5 µM (inactive)	0.752 µM (active)	> 100 µM (inactive)	> 100 µM (inactive)	43.8 µM (inactive)	62.5 µM (inactive)	24.6 µM (inactive)		51.3 µM (inactive)	64.9 µM (inactive)	39.9 µM (inactive)
CCSC12OC3(CCCCCN3C1=O)C1C(=O)N(c3ccccc3)C(=O)C12 (stereo not given)	> 100 µM (inactive)	> 100 µM (inactive)	> 100 µM (inactive)		> 100 µM (inactive)		> 100 µM (inactive)	> 100 µM (inactive)	> 100 µM (inactive)	> 100 µM (inactive)	> 100 µM (inactive)	> 100 µM (inactive)	> 100 µM (inactive)	> 100 µM (inactive)	> 100 µM (inactive)	> 100 µM (inactive)	> 100 µM (inactive)	> 100 µM (inactive)	> 100 µM (inactive)
N#CC(C(=O)c1ccccc1F)c1nc2cc(C(F)(F)F)ccc2s1 (stereo not given)		20.9 µM (inactive)	19.7 µM (inactive)		32.5 µM (inactive)		19.6 µM (inactive)		23 µM (inactive)	25.9 µM (inactive)	19.6 µM (inactive)	31.1 µM (inactive)		19.7 µM (inactive)	20.8 µM (inactive)	36.3 µM (inactive)		27.5 µM (inactive)	14.6 µM (inactive)
COC([C@@H](OC(=O)c1ccccc1)[C@H](OC(=O)c1ccccc1)C(O)COC(=O)c1ccccc1)n1cc(C)c(=O)[nH]c1=O (stereo not given in full)	13.7 µM (inactive)	22 µM (inactive)	29.4 µM (inactive)			13 µM (inactive)	23.6 µM (inactive)	25.7 µM (inactive)	21.3 µM (inactive)	11.6 µM (inactive)	26.2 µM (inactive)	3.6 µM (inactive)	16.4 µM (inactive)	28.6 µM (inactive)	11.7 µM (inactive)	31.4 µM (inactive)		31.6 µM (inactive)	22.5 µM (inactive)
O=C1c2scc(-c3ccc(F)cc3)c2-n2cccc21		44.9 µM (inactive)		23.5 µM (inactive)	43 µM (inactive)	21.2 µM (inactive)	52.1 µM (inactive)	35.2 µM (inactive)	13.6 µM (inactive)	13.6 µM (inactive)	15.7 µM (inactive)	27.9 µM (inactive)	56.5 µM (inactive)	33 µM (inactive)	22.4 µM (inactive)	18.3 µM (inactive)	28.6 µM (inactive)	39.7 µM (inactive)	6.4 µM (inactive)
CCN(CC)C(=S)SNCc1ccc(S(N)(=O)=O)cc1	> 100 µM (inactive)	14.6 µM (inactive)	19.3 µM (inactive)	36 µM (inactive)	14.9 µM (inactive)		15.3 µM (inactive)	16.6 µM (inactive)	18.5 µM (inactive)	16.4 µM (inactive)	14.3 µM (inactive)	8.97 µM (inactive)	12.3 µM (inactive)	18.9 µM (inactive)	13.5 µM (inactive)	13.1 µM (inactive)		15.3 µM (inactive)	18.5 µM (inactive)
